Data on 87 molecules can be found in a melting point compilation (Tetko et al.; mined from patent text by program, amines drawn as free bases though some values may be those of a salt).

With `COc1ccc(C(C)(C)C)cc1C(=O)c1cc([N+](=O)[O-])ccc1Cl`, the melting point – broadly, the temperature, or range, at which the solid turns liquid – lay in the range of 136 to 139 °C.
The same measure for `O=C1Nc2ccccc2C12CCCC2Br` (configuration not stated): 238 to 240 °C; for `CN1CCN(c2ccc(NC(=O)C3(C)CC3)cc2C(F)(F)F)C1=O`: 90 to 91 °C; for `CS(=O)(=O)c1ccc(-n2nc(C(F)(F)F)cc2-c2ccc(-c3ccsc3)cc2)cc1`: 154 to 155 °C.
For the molecule `CCSC1(c2ccc(Cl)cc2)OC(c2ccncc2)=Nc2ccccc21` (configuration not stated), the melting point was 138 to 139 °C.
`COc1ccc(N2CCN(c3cc4c(cc3-c3ccc(C)cc3)OC(C)(C)C4)CC2)cc1` displayed a melting point of 187 to 190 °C.
For the molecule `COc1cc(CCCn2cncn2)ccc1O`, the melting point fell in the range of 97 to 98 °C.
The value for `C[C@H](c1ccccc1)n1c(O)nc2c(N)nc3ccccc3c21` was more than 250 °C.
`CC#CC(=O)c1c(-c2ccc(F)cc2)nn2c(Cl)cccc12` yielded a melting point of 182 to 183 °C.
As for `CC1(C)Oc2ccc(S(=O)(=O)C(F)(F)F)cc2[C@@H](N2Cc3ccccc3C2=O)[C@@H]1O[N+](=O)[O-]` (relative stereo), the melting point turned out to be 190 °C.
`Cc1cc2c(cc1Sc1ccc(C(=O)O)cc1)C(C)(C)CCC2(C)C` yielded a melting point of 253 to 254 °C.
Turning to `O=C(C1CCN(CCO)CC1)N1CCN2C(=O)OC(c3ccccc3)(c3ccccc3)C2C1` (configuration not stated), the melting point is 160 to 162 °C.
The same measure for `O=C(CP(=O)(O)CCCCc1ccccc1)OCc1ccccc1`: 64 to 67 °C; for `COC(=O)c1cc(=NS(=O)(=O)c2ccccc2)c2ccccc2o1`: 144 to 146 °C; for `N#CC1CN1C(=O)C1(c2ccc(Cl)cc2)CCCC1` (configuration not stated): 80 to 82 °C.
As for `NC(=O)c1cccc2nccc(O)c12`, the melting point was in the range of 205 to 207 °C.
In turn, `NC(=NO)c1ncn2c1[C@@H]1CCN1C(=O)c1c-2ccc(F)c1Cl` came in with a melting point of 236 to 238 °C.
`C=C1C(O)C(CO)OC1n1cc(F)c(N)nc1=O` (configuration not stated) came in with a melting point of 185 to 187 °C.
`O=C1c2ccc(Cl)cc2C(=O)N1c1ccccc1`: the melting point was in the range of 187 to 189 °C.
For `Nc1ncc(Sc2ccc(F)cc2F)s1`, the melting point lay in the range of 116 to 117 °C.
The value for `CCCCc1nc(I)c(CO)[nH]1` was 166 °C; that for `CCCNC(=O)C1c2ccccc2-c2ccccc21` was 197 to 199 °C; that for `COc1ccc(C(=O)c2ccccc2[N+](=O)[O-])cn1` was 94 to 95 °C.
Molecule `COC(=O)C(CCSC)N(C(=O)OC(C)(C)C)C(=O)c1ccc(N)c2ccccc12` (configuration not stated) yielded a melting point of 131 to 132 °C.
Turning to `N#Cc1ccc(N(Cc2ccc(OCc3ccccc3)cc2)n2cnnc2)cc1-c1ccc(C(F)(F)F)cc1`, the melting point lay in the range of 173 to 175 °C.
In turn, `O=C(NC1CCCCC1)ON1C(=O)CCC1=O` showed a melting point of 158 to 160 °C.
The value for `Nc1cccc(-c2ccc(-c3cccc(CN4CC5C(N)C5C4)c3)cc2)n1` (configuration not stated) was 184 to 196 °C.
The same measure for `O=C(NNS(=O)(=O)c1ccccc1)c1ccc(I)cc1`: 193 to 195 °C.
The value for `CN(C)C(=O)c1c(-c2ccc(F)cc2)ccc2ccccc12` was 103 to 104 °C; that for `O=C(O)C(Cl)C1c2c(Cl)c(Cl)c(Cl)c(Cl)c2C(Cl)(Cl)C1(Cl)Cl` (configuration not stated) was 214 to 216 °C.
Consider `CCCCCCCCCCCCCCn1c(=O)[nH]c2nc3ccccc3n2c1=O`, for which the melting point turned out to be 193 °C.
Take `O=C(O)C(O)=CC(=O)c1cn(Cc2ccccc2)cc(Cc2ccccc2)c1=O`: the melting point is 140 to 142 °C.
Take `COC(C)(CC(=O)NC12CC3CC(CC(C3)C1)C2)OC`: the melting point came to 140 °C.
`CCCCN(C(=O)CNC(=O)c1cc2ccccc2n1CC(=O)OC)c1c(OC)cc(C)cc1OC`: the melting point was 139 °C.
The same measure for `COc1cc(OC)cc(N2Cc3cnc(S(C)=O)nc3NC2=O)c1` (configuration not stated): 220 to 222 °C; for `COc1ccc(-c2nc(Sc3ccc(C)cc3)n(Cc3ccccc3)c2-c2ccc(OC)cc2)cc1`: 115 to 117 °C; for `CC(COc1c(-c2ccccc2)c(=O)[nH]c2cc(Cl)ccc12)=NO`: 196 to 198 °C.
`CC(=O)OC1CSC(Oc2cc(-c3ccnc(F)c3)cnc2F)C(OC(C)=O)C1OC(C)=O` (configuration not stated) yielded a melting point of 142 to 144 °C.
The value for `Cn1c(COc2ccc(CC3SC(=O)NC3=O)cc2)nc2ccc(OCCc3ccc(N)cc3)cc21` (configuration not stated) was 184 to 188 °C; that for `CC(=O)Nc1nc(CCc2ccc(NC(=NC(=O)OC(C)(C)C)NC(=O)OC(C)(C)C)cc2)c(C(=O)O)s1` was 222 to 223 °C.
As for `Cc1c(NC(=O)NCC(C)O)c(C)c2c(c1-c1ccccc1)OCC2c1ccc(C(C)C)cc1` (configuration not stated), the melting point was in the range of 171 to 182 °C.
In the case of `O=Cc1c(O)cccc1OCc1ccccc1C(=O)O`, the melting point fell in the range of 218 to 220 °C.
Regarding `COc1c(N2C[C@H]3[C@@H](F)CC[C@@]3(N)C2)c(F)cc2c(=O)c(C(=O)O)cn([C@@H]3C[C@@H]3F)c12`, the melting point fell in the range of 117 to 119 °C.
In turn, `O=C(Nc1ccc(Oc2ccnc(NCC3CCCO3)n2)c2ccccc12)c1cc(F)cc(N2CCOCC2)c1` (configuration not stated) came in with a melting point of 103 to 105 °C.
As to `O=C1NCCN1CCN1CCC(c2cn(-c3ccc(F)cc3)c3ccc(O)cc23)CC1`, the melting point stood at 220 °C.
Take `CCCN(CCC)C(N)=C(C#N)C#N`: the melting point lay within 100 to 105 °C.
Molecule `O=C(O)CCNc1ccccc1CNC(=O)C1Cc2ccccc2N1S(=O)(=O)c1ccc(-c2cccc(C(F)(F)F)c2)cc1` (configuration not stated) returned a melting point of 94 °C.
For the molecule `CNC(=S)N(Cc1ccc(Cl)nc1)CC(F)(F)F`, the melting point was 98 to 100 °C.
Molecule `COc1cc(COc2nn(-c3ccccc3)cc2/C=C/P(=O)(O)O)ccc1OCc1nc(-c2ccco2)oc1C` registered a melting point of 138 to 140 °C.
Take `CCOC(=O)C(=CC=C(SC)C(=O)c1ccccc1)N(C)C`: the melting point is 78 °C.
Take `N[C@H]1CCCC[C@H]1CCC(O)(P(=O)(O)O)P(=O)(O)O` (relative stereo): the melting point was 131 to 133 °C.
Molecule `CC(NSC(=O)OC(C)(C)C)C(=O)n1c(=O)[nH]c2ccccc21` (configuration not stated) gave a melting point of 101 °C.
The value for `COc1c(N2CC(F)[C@](C)(N)C2)c(F)cc2c(=O)c(C(=O)O)cn([C@@H]3C[C@@H]3F)c12` (some centres not stated) was 160 to 163 °C; that for `COc1ccc(NC(=O)/C(C)=C/c2ccc(C(F)(F)F)cc2)c(C(=O)O)c1` was 207 to 208 °C.
For the molecule `COc1ccc(-n2nc(Sc3cc(OC)cc(OC)c3)c(C)c(C#N)c2=O)cc1`, the melting point was 181 to 184 °C.
The value for `CCOC(=O)C(=CN(C)C)C(=O)c1cc2cc(F)c(F)cc2nc1Cl` was 140 °C; that for `COCc1ccc(-c2ncccc2S(=O)(=O)Nc2ncc(C)nc2OC)cc1` was 129 to 130 °C.
`CC(=O)Oc1cc2c(c3ccccc13)Nc1ccccc1S2` came in with a melting point of 184 to 185 °C.
The value for `COC(=O)c1ccc(OC)c(C(F)(F)F)c1` was 77 to 79 °C.
`OCCOCC(O)c1cccc2ccccc12` (configuration not stated) came in with a melting point of 91 to 92 °C.
`CC(CCC(=O)C(C)(C)O)C1CCC2C3=CC=C4CC(O)CCC4(C)C3CCC21C` (configuration not stated) displayed a melting point of 150 to 152 °C.
In the case of `O=C(Nc1ccc(C(F)(F)F)cc1)c1ccc(C=NO)cc1`, the melting point fell in the range of 221 to 222 °C.
As for `CCN(CC)c1nc(Cl)nc2c(Cl)ncnc12`, the melting point lay within 113 to 114 °C.
On to `Cn1cc(-c2ccc(Cl)cc2)c(=O)c(-c2cccc(Cl)c2)c1`, for which the melting point lay within 170 to 172 °C.
The same measure for `FC(F)(F)c1cc(CO[C@H]2CCCN(Cc3ccccc3)[C@H]2c2ccccc2)cc(C(F)(F)F)c1`: 89 to 93 °C.
The molecule `CC(C)c1cccc(C(C)C)c1NC(=O)CN1CCN(CCOc2nc3ccccc3[nH]2)CC1` registered a melting point of 205 to 206 °C.
For the molecule `CSc1ccc(-c2coc3ccc(-c4nnc(C)o4)cc23)cc1`, the melting point is 173 to 174 °C.
On to `CC(C)CN1C(=O)C(C)(C)C(=O)Nc2ccc(C=O)cc21`, for which the melting point lay in the range of 208 to 211 °C.
The molecule `C#Cc1cn(C2CC(N=[N+]=[N-])C(COC(c3ccccc3)(c3ccccc3)c3ccccc3)O2)c(=O)[nH]c1=O` (configuration not stated) gave a melting point of 110 °C.
With `O=C1c2cc(OCc3ccccc3)ccc2OCCC1Oc1ccccc1` (configuration not stated), the melting point is 112 to 114 °C.
As for `Cc1nc2c3ccccc3ccn2c1CN1CCN(CCO)CC1`, the melting point lay within 115 to 117 °C.
As for `O=C(O)CCCCCNC(=O)Cc1ccsc1`, the melting point lay within 78.6 to 79.5 °C.
In turn, `Cc1ccc(-c2csc(-c3ccc4c(c3)C(C)(C)CCC4(C)C)c2)cc1` showed a melting point of 135 to 136 °C.
As to `Nc1[nH]ncc1C(=O)c1cccs1`, the melting point lay within 114 to 115 °C.
`Cc1cccc(NC(=O)NCC(=O)N(CC(=O)N2CCC(C)(C)CC2)c2ccccc2)c1` came in with a melting point of 205 °C.
The same measure for `COc1cccc(C2(COc3cccc4cc(NS(=O)(=O)C(F)(F)F)ccc34)N=CNO2)c1` (configuration not stated): 138 to 140 °C; for `CCOCCCCC(=O)c1ccc(S(C)=O)cc1` (configuration not stated): 69 to 71 °C; for `CC(C)(C)c1cc(N=C2CCc3cc4c(nc32)C(=Nc2cc(C(C)(C)C)cc(C(C)(C)C)c2)CC4)cc(C(C)(C)C)c1`: 177 to 183 °C.
Molecule `C=CCC(O)CCCCCCCCCCCCCCC` (configuration not stated) showed a melting point of 37 to 39.5 °C.
As for `COC(=O)Nc1cc(F)ccc1C(=O)O`, the melting point came to 162 °C.
The molecule `N#Cc1ccc(-c2ccc(-c3ccc(C#N)cn3)s2)cc1` gave a melting point of 316 to 318 °C.
`CC(Oc1ccc(Oc2nc3ccc(Cl)cc3o2)cc1)C(=O)OC[Si](C)(C)C` (configuration not stated): the melting point was determined as 68 °C.
`CS(=O)(=O)N1CCC(C(=O)N(CCCN2CCC(Cc3ccccc3)CC2)c2ccccc2)CC1` showed a melting point of 116 to 118 °C.
Molecule `O=C(O)Cc1cc(OCc2cccc(Oc3ccccc3)c2)ccc1Nc1c(Cl)cccc1Cl` gave a melting point of 116 to 117 °C.
In turn, `C#CCOC(=O)c1cc(Cl)c(OCC#C)c(OCC#C)c1` registered a melting point of 98 to 99 °C.
In turn, `CC#CCOc1cc(/C=C/C(=O)Nc2cc(Cl)ccc2C(=O)NC)ccc1OC` returned a melting point of 172 to 173 °C.
On to `CC(C)(C)NCC(O)COc1ccc2nc(S(N)(=O)=O)sc2c1` (configuration not stated), for which the melting point fell in the range of 195 to 196 °C.
